The source of these data is patent US20200289482A1, “CYSTIC FIBROSIS TRANSMEMBRANE CONDUCTANCE REGULATOR MODULATORS FOR TREATING AUTOSOMAL DOMINANT POLYCYSTIC KIDNEY DISEASE” (The Johns Hopkins University, priority 2017, published 2020).

For experiment [1], the system named is kidneys of Pkd1^fl/fl; Pax8^rtTA; TetO-cre mice. In words: Ki67 staining of kidney sections (proliferation). The class given is in vivo, mouse. The conditions noted are these: VX-809 30 mg/kg to mice vs DMSO-treated mice; PN21 kidney sections. An excerpt: FIG. 3A, FIG. 3B, FIG. 3C, and FIG. 3D show cell proliferation is reduced by VX-809. (FIG. 3A-FIG. 3B) Proliferation in kidneys of Pkd1^fl/fl; Pax8^rtTA; TetO-cre mice. Representative images of Ki67 (a cellular marker for proliferation) staining of PN21 kidney sections from DMSO- and VX-809-treated mice. Arrows indicate Ki67-positive cells. Pictures were acquired with a Zeiss microscope equipped with 20× objective. (FIG. 3C) Summary data for Ki67-positive cells. Columns represent averages±standard errors of DMSO (vehicle)-treated (n=3) and VX-809-treated (n=3) mice. Statistical analysis was performed using a two-tailed Student's t test. (FIG. 3D) Proliferation in PN cells. PN cells were treated with VX-809 or DMSO). The bromodeoxyuridine (BrdU) concentration in the cells was measured by using a BrdU cell proliferation assay kit (Millipore Sigma #2750) according to the manufacturer's protocol. Columns represent averages±SEs of the OD of BrdU at 450/550 […]. Data were analyzed using Student's t-test, with n=5-7. Methods were described previously (62). […]; **P<0.01;
A hallmark of the cysts in ADPKD is an increase in proliferation in response to cAMP (23). Therefore, it was determined whether VX-809 would affect proliferation.

In the next experiment the test system is Hsp70. Put plainly: Western blot of Hsp70 in kidney tissue lysates. It counts as in vivo, mouse. The settings on record: cyst induced pkd−/− mice, VX-809 30 mg/kg BW. Here is the method: (§1) FIG. 7A, FIG. 7B, FIG. 7C, FIG. 7D, FIG. 7E, and FIG. 7F show chaperone expression is altered in mice by VX-809. (FIG. 7A-FIG. 7B) Representative Western blot images of HSP27, 70, 90 and HSP40 in lysates of kidney tissue from no cyst induced (ND), cyst induced with Doxycycline (D) or cyst induced pkd−/− mice treated with VX-809 (D+VX-809) 30 mg/kg BW. (FIG. 7C, FIG. 7D, FIG. 7E, and FIG. 7F) Columns represent averages±standard errors of HSP27, 70, 90 and HSP40 expression. Data were analyzed by non-parametric t-test. n=4 for each treated and control groups. Black lines between lanes represent representative experiments from the same gel. *P<0.05; **P<0.01; To facilitate their growth in the kidney, cysts have developed an altered network of proteins that most likely serves to protect them from stress (34). Next, it was determined whether VX-809 would alter the levels of Hsps in pkd−/− mice and in PN cells. […] Hsp 27, 70 and 90 are all elevated in cystic kidneys compared to normal controls. […] There is no change in Hsp 40. […] Both sets of data are consistent with an alteration in the heat shock response to cyst growth.
(In general: A western blot detects proteins with antibodies after separation by electrophoresis.)

The subject of a further experiment is Hsp40. Put plainly: Western blot of Hsp40 in kidney tissue lysates. It counts as in vivo, mouse. The conditions noted are these: cyst induced pkd−/− mice, VX-809 30 mg/kg BW. As for the experimental part: as §1
For experiment [2], the system named is caspase 3 activity in PN cells. Put plainly: EnzChek Caspase-3 assay (apoptosis). It counts as cell-based, mouse. The settings on record: 16 h treatment. Here is the method: Apoptosis was measured using the EnzChek Caspase-3 Assay Kit (Invitrogen # E13184). Cells were treated either with VX-809 or with DMSO at indicated concentrations for 16 h or left untreated (control). Both treated and control cells were then harvested, lysed, and assayed as described in the manufacturer's protocol. Reactions were carried out at room temperature, and fluorescence was measured in a fluorescence microplate reader (SpectraMax M3), with excitation at 496 nm and emission detection at 520 nm. Background fluorescence, determined for a no-enzyme control, has been subtracted from each value. Ac-DEVD-CHO was used as an inhibitor control (Inh-cntrl) to confirm the correlation between signal detection and caspase3-like protease activity. Data were analyzed using one-way and ANOVA multiple comparisons. n=4-5. ****P<0.0001;
Apoptosis is associated with the absence of PC1 in ADPKD (36). To assess whether apoptosis is directly altered by VX-809, caspase 3 activity was monitored in PN cells.

The next experiment relates to GADD153. In words: Western blot of ER stress marker GADD153 in kidney tissue. It counts as in vivo, mouse. The settings on record: cyst containing mice, VX-809 30 mg/kg BW. As for the experimental part: FIG. 11A. FIG. 11B, FIG. 11C, FIG. 11D, and FIG. 11E show expression of ER stress markers GRP78, ErO1, and GADD in Pkd1^−/− mice treated with VX-809. (FIG. 11A & FIG. 11D) Representative Western blot images of GRP78, ErO1, and GADD in lysates of kidney tissue from no cyst induced (ND), cyst induced with doxycycline (D) or cyst induced pkd−/− mice treated with VX-809 (D+VX-809) 30 mg/kg BW. (FIG. 11B, FIG. 11C and FIG. 11E) Columns represent averages±standard errors of GRP78, ErO1, and GADD153 expression. Data were analyzed by non-parametric t-test. n=4 for each treated and control groups. Black lines between lanes represent representative experiments from the same gel but loaded in different lanes. **P<0.01, ***P<0.001;
Given that VX-809 alters an ensemble of Hsps, it was evaluated whether VX-809 alters proteins associated with ER stress. To address this question, the levels of three ER stress-associated proteins were measured, 78-kDa glucose-regulated protein (GRP78), ER oxidoreductin 1 (Ero1) and DNA damage-inducible protein 3 (GADD153), also known as C/EBP homologous protein (CHOP) (37). The results are depicted in FIG. 11 show no changes in GRP78 or Ero1 in response to VX-809.

The subject of a further experiment is NHE3. Put plainly: NHE3 activity in PN cells. The class given is cell-based, mouse. The conditions noted are these: PN cells treated with VX-809 vs PN cells. As for the experimental part:
FIG. 15A and FIG. 15B show NHE3 activity in PN and PH cells (FIG. 15A and FIG. 15B) and NHE3 activity in PN cells treated with VX-809.
FIG. 16A, FIG. 16B, and FIG. 16C show NHE activity in PN/PH cells or PN cells treated with VX-809;
The expression and activity of […] were evaluated. Specifically, NHE3 expression was evaluated in PN cells that were treated with VX-809. […] was also studied in PN, PH, and PN cells treated with VX-809. […] Next, NHE3 activity was evaluated in PN/PH cells or PN cells treated with VX-809. NHE3 activity was increased in PN cells treated with VX-809, as compared to PN cells (FIG. 16A). NHE3 activity was higher in control PH cells than in PN cells (FIG. 16B). […] NHE3 activity was increased in both VX-809 treated PN cells and control PH cells, as compared to control PN cells (FIG. 16C).

For the substance lumacaftor [VX-809], the “cell proliferation (Ki67-positive cells)” value in experiment [1] was “significantly inhibit cell proliferation”. Also, the “Hsp70 expression in kidneys” value in the experiment on Hsp70 was “significantly less expression”. Moreover, the “Hsp40 expression in kidneys” value with Hsp40 was “no change”. For the same substance, the “caspase 3 activity” value in experiment [2] was “small reduction in caspase 3 activity”. Further, the “GADD153 expression (Western blot)” value in the experiment on GADD153 was “equally dramatic reduction in GADD153”. In addition, the NHE3 activity entry in the experiment on NHE3 is listed as “significantly increased”.
